Key:
Conditions in all cases: binder
JAK2 = JAK2 (Homo sapiens, UniProt O60674)
TYK2 = TYK2 (Homo sapiens, UniProt P29597)
BMPR1B = BMPR1B (Homo sapiens, UniProt O00238)
NUAK2 = target: T1, NUAK2 (Homo sapiens, UniProt Q9H093)
T1 sequence (Q9H093 1-628): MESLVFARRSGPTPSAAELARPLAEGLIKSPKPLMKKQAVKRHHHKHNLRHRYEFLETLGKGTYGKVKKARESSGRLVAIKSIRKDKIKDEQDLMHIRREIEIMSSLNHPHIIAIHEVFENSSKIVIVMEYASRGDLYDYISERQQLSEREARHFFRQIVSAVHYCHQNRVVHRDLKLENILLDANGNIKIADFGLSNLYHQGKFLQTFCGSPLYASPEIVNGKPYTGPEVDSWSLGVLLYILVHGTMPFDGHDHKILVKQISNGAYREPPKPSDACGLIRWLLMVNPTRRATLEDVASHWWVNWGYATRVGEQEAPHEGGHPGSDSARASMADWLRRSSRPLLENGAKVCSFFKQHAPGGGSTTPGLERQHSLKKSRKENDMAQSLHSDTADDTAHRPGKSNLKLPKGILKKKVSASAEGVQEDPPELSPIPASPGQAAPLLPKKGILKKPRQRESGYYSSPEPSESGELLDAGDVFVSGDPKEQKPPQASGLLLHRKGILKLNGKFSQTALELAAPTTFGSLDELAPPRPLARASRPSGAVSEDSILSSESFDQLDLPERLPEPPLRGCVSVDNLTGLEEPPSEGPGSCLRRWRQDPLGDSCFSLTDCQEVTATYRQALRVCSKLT

STK3 (MST2) = target: T2, STK3 (MST2) (Homo sapiens, UniProt Q13188)
T2 sequence (Q13188 1-491): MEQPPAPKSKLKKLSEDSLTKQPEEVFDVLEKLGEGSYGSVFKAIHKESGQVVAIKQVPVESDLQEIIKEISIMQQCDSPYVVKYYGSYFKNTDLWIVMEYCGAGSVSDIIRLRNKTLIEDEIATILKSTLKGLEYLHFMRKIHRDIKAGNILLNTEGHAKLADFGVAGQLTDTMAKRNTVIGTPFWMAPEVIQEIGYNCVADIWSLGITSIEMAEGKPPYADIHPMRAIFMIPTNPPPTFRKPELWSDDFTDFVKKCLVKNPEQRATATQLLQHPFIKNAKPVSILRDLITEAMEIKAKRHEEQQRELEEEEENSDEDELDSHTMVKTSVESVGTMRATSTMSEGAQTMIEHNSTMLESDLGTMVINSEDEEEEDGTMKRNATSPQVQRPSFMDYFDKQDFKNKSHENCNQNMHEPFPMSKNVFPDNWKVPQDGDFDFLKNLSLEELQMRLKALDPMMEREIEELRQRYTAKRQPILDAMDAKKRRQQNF

RIOK2 = RIOK2 (Homo sapiens, UniProt Q9BVS4)
Sequence of RIOK2 (Q9BVS4 whole entry): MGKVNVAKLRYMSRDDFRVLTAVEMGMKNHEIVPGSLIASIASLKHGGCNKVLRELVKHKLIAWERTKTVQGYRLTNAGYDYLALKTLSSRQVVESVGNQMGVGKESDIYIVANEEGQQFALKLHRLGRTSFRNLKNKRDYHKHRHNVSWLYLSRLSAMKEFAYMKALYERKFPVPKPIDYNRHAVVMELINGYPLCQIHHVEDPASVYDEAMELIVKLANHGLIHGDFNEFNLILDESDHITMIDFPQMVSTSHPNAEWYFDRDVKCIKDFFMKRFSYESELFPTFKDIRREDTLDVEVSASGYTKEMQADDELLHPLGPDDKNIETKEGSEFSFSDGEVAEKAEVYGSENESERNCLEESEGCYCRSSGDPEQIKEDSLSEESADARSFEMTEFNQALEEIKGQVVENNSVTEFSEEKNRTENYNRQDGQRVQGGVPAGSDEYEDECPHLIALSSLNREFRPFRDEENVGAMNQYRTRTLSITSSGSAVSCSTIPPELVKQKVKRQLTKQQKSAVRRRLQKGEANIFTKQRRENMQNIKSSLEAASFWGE

MAP3K15 = target: T3, MAP3K15 (Homo sapiens, UniProt Q6ZN16)
T3 sequence (Q6ZN16 1-1313): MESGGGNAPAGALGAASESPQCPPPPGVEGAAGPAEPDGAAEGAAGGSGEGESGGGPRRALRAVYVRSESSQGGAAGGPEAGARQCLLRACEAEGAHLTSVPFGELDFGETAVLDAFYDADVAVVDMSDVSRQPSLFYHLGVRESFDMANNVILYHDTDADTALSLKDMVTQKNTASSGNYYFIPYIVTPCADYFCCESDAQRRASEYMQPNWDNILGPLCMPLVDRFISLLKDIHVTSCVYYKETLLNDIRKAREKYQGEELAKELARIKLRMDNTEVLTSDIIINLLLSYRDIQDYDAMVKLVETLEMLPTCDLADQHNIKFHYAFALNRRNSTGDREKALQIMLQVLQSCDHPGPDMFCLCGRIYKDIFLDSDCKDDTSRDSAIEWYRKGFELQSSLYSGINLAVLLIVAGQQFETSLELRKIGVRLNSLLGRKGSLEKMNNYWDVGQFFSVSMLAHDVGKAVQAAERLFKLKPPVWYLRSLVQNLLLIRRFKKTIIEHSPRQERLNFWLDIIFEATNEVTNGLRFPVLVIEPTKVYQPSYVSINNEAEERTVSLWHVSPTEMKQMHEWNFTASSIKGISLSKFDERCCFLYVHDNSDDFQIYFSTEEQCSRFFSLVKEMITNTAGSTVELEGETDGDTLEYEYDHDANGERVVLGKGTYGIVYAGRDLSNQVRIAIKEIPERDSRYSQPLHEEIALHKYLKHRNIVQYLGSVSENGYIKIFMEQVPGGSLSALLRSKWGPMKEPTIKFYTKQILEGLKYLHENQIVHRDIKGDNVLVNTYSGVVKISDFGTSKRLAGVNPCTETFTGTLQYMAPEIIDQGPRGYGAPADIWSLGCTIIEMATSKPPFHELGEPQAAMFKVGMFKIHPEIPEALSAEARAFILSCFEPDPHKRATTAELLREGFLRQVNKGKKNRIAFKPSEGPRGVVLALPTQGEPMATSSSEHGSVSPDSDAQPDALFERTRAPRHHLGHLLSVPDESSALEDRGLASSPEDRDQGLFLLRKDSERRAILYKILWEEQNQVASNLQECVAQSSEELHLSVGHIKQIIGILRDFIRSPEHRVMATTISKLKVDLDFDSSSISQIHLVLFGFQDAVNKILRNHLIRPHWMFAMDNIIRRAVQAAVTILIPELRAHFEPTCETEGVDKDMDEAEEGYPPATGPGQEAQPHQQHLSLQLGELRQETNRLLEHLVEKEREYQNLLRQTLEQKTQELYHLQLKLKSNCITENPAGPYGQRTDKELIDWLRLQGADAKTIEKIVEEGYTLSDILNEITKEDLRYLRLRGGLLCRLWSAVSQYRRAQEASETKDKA

CSNK2A1 = CSNK2A1 (Homo sapiens, UniProt P68400)
Sequence of CSNK2A1 (P68400 whole entry): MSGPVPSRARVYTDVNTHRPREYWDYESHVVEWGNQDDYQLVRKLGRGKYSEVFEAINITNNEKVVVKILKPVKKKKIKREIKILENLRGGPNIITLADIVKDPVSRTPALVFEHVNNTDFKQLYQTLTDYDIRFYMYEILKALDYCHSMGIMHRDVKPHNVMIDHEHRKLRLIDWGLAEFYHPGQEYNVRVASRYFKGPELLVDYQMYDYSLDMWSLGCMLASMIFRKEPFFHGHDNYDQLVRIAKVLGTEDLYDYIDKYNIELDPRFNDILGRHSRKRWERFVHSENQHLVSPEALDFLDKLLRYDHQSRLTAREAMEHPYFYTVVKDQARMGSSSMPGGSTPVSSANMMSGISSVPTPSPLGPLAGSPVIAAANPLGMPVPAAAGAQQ

Sequence of TYK2 (P29597 whole entry): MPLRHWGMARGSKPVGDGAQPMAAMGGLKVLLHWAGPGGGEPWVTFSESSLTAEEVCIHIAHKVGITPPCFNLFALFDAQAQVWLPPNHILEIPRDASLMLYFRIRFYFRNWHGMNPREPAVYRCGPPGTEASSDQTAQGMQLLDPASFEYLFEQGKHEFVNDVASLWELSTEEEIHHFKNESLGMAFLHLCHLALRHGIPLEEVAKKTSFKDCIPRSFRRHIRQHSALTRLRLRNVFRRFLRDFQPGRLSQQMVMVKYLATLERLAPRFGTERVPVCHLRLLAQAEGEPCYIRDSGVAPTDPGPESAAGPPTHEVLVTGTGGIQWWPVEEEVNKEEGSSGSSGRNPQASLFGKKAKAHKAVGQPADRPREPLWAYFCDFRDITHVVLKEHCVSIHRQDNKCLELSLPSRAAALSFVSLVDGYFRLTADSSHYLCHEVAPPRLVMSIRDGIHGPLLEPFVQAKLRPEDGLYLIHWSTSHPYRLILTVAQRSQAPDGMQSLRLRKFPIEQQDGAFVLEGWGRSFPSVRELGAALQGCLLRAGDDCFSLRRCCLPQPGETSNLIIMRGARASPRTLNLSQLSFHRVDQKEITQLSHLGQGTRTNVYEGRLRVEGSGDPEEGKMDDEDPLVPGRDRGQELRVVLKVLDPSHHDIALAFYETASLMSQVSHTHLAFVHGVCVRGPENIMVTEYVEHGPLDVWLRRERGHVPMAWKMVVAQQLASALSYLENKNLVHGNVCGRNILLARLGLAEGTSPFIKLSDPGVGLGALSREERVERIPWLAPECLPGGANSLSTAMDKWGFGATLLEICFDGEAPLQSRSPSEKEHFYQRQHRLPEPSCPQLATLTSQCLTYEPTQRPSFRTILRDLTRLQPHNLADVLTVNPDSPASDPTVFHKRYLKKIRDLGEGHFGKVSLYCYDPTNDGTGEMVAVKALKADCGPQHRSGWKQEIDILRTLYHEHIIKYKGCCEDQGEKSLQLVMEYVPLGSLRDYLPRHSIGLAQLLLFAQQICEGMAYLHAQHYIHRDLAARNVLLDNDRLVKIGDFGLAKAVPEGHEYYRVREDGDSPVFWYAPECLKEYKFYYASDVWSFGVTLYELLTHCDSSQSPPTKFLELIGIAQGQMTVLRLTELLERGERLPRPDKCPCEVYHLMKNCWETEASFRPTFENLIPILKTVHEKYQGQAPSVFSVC
Sequence of JAK2 (O60674 whole entry): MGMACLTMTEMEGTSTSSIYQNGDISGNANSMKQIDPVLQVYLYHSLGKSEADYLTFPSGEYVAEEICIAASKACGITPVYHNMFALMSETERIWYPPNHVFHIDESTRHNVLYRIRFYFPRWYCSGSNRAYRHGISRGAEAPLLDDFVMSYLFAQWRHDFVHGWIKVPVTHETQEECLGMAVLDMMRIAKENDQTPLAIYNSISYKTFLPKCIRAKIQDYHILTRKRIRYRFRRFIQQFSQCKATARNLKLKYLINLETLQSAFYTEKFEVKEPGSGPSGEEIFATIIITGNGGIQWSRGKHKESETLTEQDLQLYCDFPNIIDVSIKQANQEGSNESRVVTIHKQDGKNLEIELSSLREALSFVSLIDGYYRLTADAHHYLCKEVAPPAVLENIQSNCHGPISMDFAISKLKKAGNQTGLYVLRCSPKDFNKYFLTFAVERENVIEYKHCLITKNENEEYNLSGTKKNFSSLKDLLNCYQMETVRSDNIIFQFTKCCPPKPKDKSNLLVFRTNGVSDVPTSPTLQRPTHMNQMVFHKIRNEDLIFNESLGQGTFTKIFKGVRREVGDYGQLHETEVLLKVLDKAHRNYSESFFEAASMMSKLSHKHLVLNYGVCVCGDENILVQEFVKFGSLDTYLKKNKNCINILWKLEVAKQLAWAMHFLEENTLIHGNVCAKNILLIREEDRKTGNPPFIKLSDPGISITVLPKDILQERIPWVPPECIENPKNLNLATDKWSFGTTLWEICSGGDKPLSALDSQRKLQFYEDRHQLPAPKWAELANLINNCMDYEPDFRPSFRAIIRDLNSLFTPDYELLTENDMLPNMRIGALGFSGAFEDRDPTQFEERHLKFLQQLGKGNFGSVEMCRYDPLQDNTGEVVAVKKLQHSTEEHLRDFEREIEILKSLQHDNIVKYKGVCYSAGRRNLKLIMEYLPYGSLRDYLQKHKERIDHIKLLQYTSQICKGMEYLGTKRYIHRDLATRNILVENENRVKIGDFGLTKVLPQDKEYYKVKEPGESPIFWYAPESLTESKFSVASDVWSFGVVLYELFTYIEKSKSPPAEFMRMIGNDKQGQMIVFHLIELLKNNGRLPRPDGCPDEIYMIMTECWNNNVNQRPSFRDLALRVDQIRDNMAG
Sequence of BMPR1B (O00238 whole entry): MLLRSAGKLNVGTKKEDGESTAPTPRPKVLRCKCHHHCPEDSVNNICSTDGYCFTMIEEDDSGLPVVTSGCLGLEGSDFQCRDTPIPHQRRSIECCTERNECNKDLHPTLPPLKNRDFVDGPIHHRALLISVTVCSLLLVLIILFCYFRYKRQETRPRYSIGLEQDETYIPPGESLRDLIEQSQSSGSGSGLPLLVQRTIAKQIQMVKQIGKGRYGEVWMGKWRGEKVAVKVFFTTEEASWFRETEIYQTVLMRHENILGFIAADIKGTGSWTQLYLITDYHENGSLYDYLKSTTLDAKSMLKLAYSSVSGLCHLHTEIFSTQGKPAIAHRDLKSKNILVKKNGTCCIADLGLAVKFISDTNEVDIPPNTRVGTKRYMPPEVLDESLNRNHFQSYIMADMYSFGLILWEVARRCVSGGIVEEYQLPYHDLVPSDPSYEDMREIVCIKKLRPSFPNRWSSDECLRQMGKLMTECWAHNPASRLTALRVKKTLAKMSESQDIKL

Compound A1 PoC (JAK2): 0.4%
Compound A1 PoC (TYK2): 6.9%
Compound A1 PoC (BMPR1B): 1.8%
Compound A1 PoC (NUAK2): 1.2%
Compound A1 PoC (STK3 (MST2)): 0%
Compound A1 PoC (RIOK2): 0%
Compound A1 PoC (MAP3K15): 0%
Compound A1 PoC (CSNK2A1): 0%
SMILES: C[C@H](NC(=O)c1c[nH]c2ncc(C3CC3)nc12)C(C)(C)C [A1, UNC-BE4-017]

— article doi:10.1101/2021.02.21.432137v1 (biorxiv, 2021)
